Experimental data from US20150072395A1, “RECOMBINANT MICROORGANISMS AND METHODS OF USE THEREOF” (priority 2013, published 2015).

Assays:
[1] = tested on: C. autoethanogenum DSM23693 harbouring pMTL85151-pheS*; format: cell-based, Clostridium autoethanogenum; details: summary statement
Description: (§1) The three independent transformants of C. atoethanogenum DSM23693 harbouring pMTL85151-pheS*, as well as C. autoethanogenum DSM23693 harbouring pMTL85151, were grown in liquid PECT media supplemented with thiamphenicol and grown at 37° C. under CO only conditions. After 24 hours, 100 ul of each of the three independent, as well as the control pMTL85151, were plated into PETC-MES agar supplemented with either thiamphenicol alone, or thiamphenicol and DL-4-chlorophenylalanine and incubated for 48 hours.

[2] = tested on: C. autoethanogenum DSM23693 harbouring pMTL85151; assay: Toxicity/sensitivity testing of DL-4-chlorophenylalanine, C. autoethanogenum with empty vector; format: cell-based, Clostridium autoethanogenum
Description: (§2) E. coli Top10 and C. autoethanogenum DSM23693 harbouring the empty vector pMTL85151 were grown initially in the presence of DL-4-chlorophenylanine on plates and in liquid media to ascertain if the counter-selection marker has any effect on growth of the organisms.
as §1

[3] = tested on: E. coli Top10 harbouring the empty vector pMTL85151; assay: Toxicity testing of DL-4-chlorophenylalanine, E. coli with empty vector; format: cell-based; details: plates and liquid media, 24 hours
Description: as §2

[4] = tested on: E. coli TOP10 harbouring pMTL85151-pheS*; assay: Testing pheS* in E. coli (plating on LB with chloramphenicol and DL-4-chlorophenylalanine); format: cell-based
Description: To test the ability of the counter selection marker to work in E. coli, the plasmid pMTL85151-pheS* was transformed into TOP10 and grown under chloramphenicol selection only. Once the culture had reached an OD of 0.5, representing an exponential growth phase, 100 ul was plated onto LB plates containing chloramphenicol and DL-4-chlorophenylalanine as well as chloramphenicol alone as a control, in triplicate, […]

[5] = tested on: LZ-pMTL83155; assay: Sensitivity of C. autoethanogenum transformants to ganciclovir (plating on PETC agar), empty-vector strain; format: cell-based, Clostridium autoethanogenum
Description: (§3) The pMTL83155, pMTL83155-Hsv-tk and pMTL85155-PheS plasmids were introduced into C. autoethanogenum DSM23693 (a derivate of DSM10061) as described in WO2012053905. Outgrowth was performed in PETC broth and spread on PETC-agar media supplemented with 15 μg/ml thiamphenicol (Sigma) and 10 μg/ml trimethoprim (Sigma). Colonies were observed after 3 days of incubation at 37° C. in pressurized gas jars with 20 psi of a gas mix of 48% CO3 2% H2, 20% CO2, 30% N2. Streaks of single colonies were made on PETC-agar media containing 15 μg/mlthiamphenicol.
(§4) The sensitivity of LZ-pMTL83155 and LZ-pMTL83155-hsv-tk to ganciclovir was tested by plating them on PETC agar media containing 20 nM ganciclovir only and PETC agar media containing 20 nM ganciclovir and 15 μg/ml thiamphenicol. […] The presence of Hvs-tk gene confers toxicity to ganciclovir.

[6] = tested on: LZ-pMTL83155-hsv-tk; format: cell-based, Clostridium autoethanogenum
Description: as §3, with “Colonies were observed after 3 days of incubation at 37° C. in pressurized gas jars with 20 psi of a gas mix of 48% CO3 2% H2, 20% CO2, 30% N2.” left out
as §4

Structure (SMILES)	Counterselection in combination with PheS* [1]	Sensitivity to prodrug: growth on plate, column LZ-pMTL83155 ([2]; DL-4-Chlorophenlanine 0.20%, CSM PheS, control strain without CSM)	Growth on double selection plates (thiamphenicol and DL-4-chlorophenylalanine) ([2]; PETC-MES agar, 48 hours)	Effect on growth ([2]; plates and liquid media, 48 hours)	Effect on growth [3]	Growth on plates with chloramphenicol and DL-4-chlorophenylalanine ([4]; 24 hours at 37° C., compared with chloramphenicol alone)	Growth on plates with chloramphenicol and DL-4-chlorophenylalanine ([4]; after 36 hours)	Colonies on ganciclovir plates ([5]; 20 nM ganciclovir, with or without 15 μg/ml thiamphenicol)	Sensitivity to prodrug: growth on plate, LZ-pMTL83155 ([5]; Ganciclovir 20 nM, CSM Hsv-tk)	Sensitivity to prodrug: growth on plate, LZ-pMTL83155-hsv-tk ([6]; Ganciclovir 20 nM, CSM Hsv-tk, PETC agar)	Counterselection in combination with HSV-Tk ([6]; summary statement)
NC(Cc1ccc(Cl)cc1)C(=O)O (racemic) [DL-4-chlorophenylalanine]	effective for counterselection in C. autoethanogenum	Lawn	the same results as the thiamphenicol only plate	did not impede growth of either organism in liquid media or on plates	did not impede growth of either organism in liquid media or on plates	a light shading of small colonies	outgrown to the same level as the chloramphenicol alone plates				
Nc1nc(O)c2ncn(COC(CO)CO)c2n1 [Ganciclovir, ganciclovir]								observed only with LZ-pMTL83155 transformants	Lawn	0-5 ^	effective for counterselection in C. autoethanogenum
